Data from PubChem BioAssay AID206 (DTP/NCI, 2004).
Inconclusive results are not listed.

Test system: nude mice, HT29 intrarenal xenograft, tumor weight T/C
Test: NCI In Vivo Anticancer Drug Screen. Data for tumor model HT29;CX-1 Human Adenocarcinoma (MER+) (intrarenal inoculation) in NU/NU Swiss (nude) mice
Details: endpoint: mean tumor weight change, higher = larger tumour
Outline: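 Mice with transplanted tumors are dosed with compound while controls get vehicle only. Survival or tumor burden is then assessed per group, and the treated value is expressed relative to control.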

[1] = dose: 150.0 mg/kg/injection, schedule: Q04DX004 (sc), vehicle: saline with Tween-80
[2] = dose: 600.0 mg/kg/injection, schedule: Q04DX004 (sc), vehicle: saline with Tween-80
[3] = dose: 200.0 mg/kg/injection, schedule: Q01DX010 (sc), vehicle: saline with Tween-80
[4] = dose: 400.0 mg/kg/injection, schedule: Q01DX010 (sc), vehicle: saline with Tween-80
[5] = dose: 800.0 mg/kg/injection, schedule: Q01DX010 (sc), vehicle: saline with Tween-80
[6] = dose: 25.0 mg/kg/injection, schedule: Q04DX004 (sc), vehicle: saline
[7] = dose: 50.0 mg/kg/injection, schedule: Q04DX004 (sc), vehicle: saline
[8] = dose: 150.0 mg/kg/injection, schedule: Q04DX004 (sc), vehicle: Klucel (hydroxypropylcellulose) (HPC)
[9] = dose: 600.0 mg/kg/injection, schedule: Q04DX004 (sc), vehicle: Klucel (hydroxypropylcellulose) (HPC)
[10] = dose: 1200.0 mg/kg/injection, schedule: Q04DX004 (sc), vehicle: Klucel (hydroxypropylcellulose) (HPC)
[11] = dose: 300.0 mg/kg/injection, schedule: Q04DX004 (sc), vehicle: Klucel (hydroxypropylcellulose) (HPC)

`CC(=O)OCC(OC(C)=O)C(Cl)CCl` (stereo unspecified) was tested, and the T/C (dose: 31.25 mg/kg/injection, schedule: Q04DX004 (ip), vehicle: saline) was 114 % of control, the T/C (dose: 62.5 mg/kg/injection, schedule: Q04DX004 (ip), vehicle: saline) was 121 % of control and the T/C (dose: 125.0 mg/kg/injection, schedule: Q04DX004 (ip), vehicle: saline) was 84 % of control. The T/C (dose: 250.0 mg/kg/injection, schedule: Q04DX004 (ip), vehicle: saline) was 100 % of control and the T/C (dose: 500.0 mg/kg/injection, schedule: Q04DX004 (ip), vehicle: saline) was 115 % of control.

`CC(C)[C@]12O[C@H]1[C@@H]1O[C@]13[C@]1(O[C@H]1C[C@H]1C4=C(C(=O)OC4)[C@@H](O)C[C@@]13C)[C@@H]2O` was tested, and the T/C (dose: 0.1 mg/kg/injection, schedule: Q01DX010 (sc), vehicle: saline + alcohol) was 63 % of control and the T/C (dose: 0.2 mg/kg/injection, schedule: Q01DX010 (sc), vehicle: saline + alcohol) was 77 % of control.

In the case of `O=C(Nc1cccc(Cl)c1)ON1C(=O)C2C(C1=O)C1(Cl)C(Cl)C(Cl)C2(Cl)C1(Cl)Cl` (stereo unspecified), the T/C [1] is reported as 90 % of control, the T/C [2] is reported as 169 % of control and the T/C (dose: 1200.0 mg/kg/injection, schedule: Q04DX004 (sc), vehicle: saline with Tween-80) is reported as 89 % of control.

In the case of `OC1CCCC2CCCNC12` (stereo unspecified), the T/C (dose: 37.5 mg/kg/injection, schedule: Q04DX004 (sc), vehicle: saline with Tween-80) is reported as 85 % of control, the T/C (dose: 75.0 mg/kg/injection, schedule: Q04DX004 (sc), vehicle: saline with Tween-80) is reported as 77 % of control and the T/C [1] is reported as 83 % of control.

For `CC(=O)OCC1OC(n2cc(CBr)nn2)C(OC(C)=O)C(OC(C)=O)C1OC(C)=O` (stereo unspecified), the T/C [3] was 79 % of control, the T/C [4] was 97 % of control and the T/C [5] was 70 % of control.

In the case of `Cc1c(N)nc([C@H](CC(N)=O)NC[C@H](N)C(N)=O)nc1C(=O)N[C@H](C(=O)N[C@H](C)[C@@H](O)[C@H](C)C(=O)N[C@H](C(=O)NCCc1nc(-c2nc(C(=O)NCCC[S+](C)C)cs2)cs1)[C@@H](C)O)C(OC1OC(CO)C(O)C(O)C1OC1OC(CO)C(O)C(OC(N)=O)C1O)c1cnc[nH]1` (stereo partly specified), the T/C (dose: 4.0 mg/kg/injection, schedule: Q01DX010 (sc), vehicle: saline) is reported as 59 % of control, the T/C (dose: 6.25 mg/kg/injection, schedule: Q04DX004 (sc), vehicle: saline) is reported as 116 % of control and the T/C (dose: 8.0 mg/kg/injection, schedule: Q01DX010 (sc), vehicle: saline) is reported as 59 % of control. For the same compound, the T/C (dose: 8.0 mg/kg/injection, schedule: Q04DX004 (sc), vehicle: saline) was 111 % of control, the T/C (dose: 16.0 mg/kg/injection, schedule: Q04DX004 (sc), vehicle: saline) was 114 % of control and the T/C [6] was 160 % of control. The T/C (dose: 32.0 mg/kg/injection, schedule: Q04DX004 (sc), vehicle: saline) was 43 % of control, the T/C [7] was 113 % of control and the T/C (dose: 64.0 mg/kg/injection, schedule: Q01DX010 (sc), vehicle: saline) was 42 % of control.

With `c1cc[c]([Sn]([NH]c2ncnc3[nH]cnc23)([NH]c2ncnc3[nH]cnc23)[c]2ccccc2)cc1` the T/C (dose: 150.0 mg/kg/injection, schedule: Q04DX004 (sc), vehicle: suspension in saline) was 89 % of control, the T/C (dose: 300.0 mg/kg/injection, schedule: Q04DX004 (sc), vehicle: suspension in saline) was 47 % of control and the T/C (dose: 600.0 mg/kg/injection, schedule: Q04DX004 (sc), vehicle: suspension in saline) was 28 % of control. The T/C (dose: 1200.0 mg/kg/injection, schedule: Q04DX004 (sc), vehicle: suspension in saline) was 124 % of control.

With `C[C@]12C=CC(=O)C=C1CC[C@@H]1[C@@H]2C(=O)C[C@@]2(C)[C@H]1CC[C@]2(O)C(=O)CO` the T/C [8] was 18 % of control, the T/C [9] was 27 % of control and the T/C [10] was 19 % of control.

With `CC(=O)C1=C(O)C2(O)C(=O)c3c(c(C)c4ccc(C)c(O)c4c3O)CC2C(N)C1=O` (stereo unspecified) the T/C [6] was 153 % of control, the T/C [7] was 173 % of control and the T/C (dose: 100.0 mg/kg/injection, schedule: Q04DX004 (sc), vehicle: saline) was 102 % of control. The T/C (dose: 200.0 mg/kg/injection, schedule: Q04DX004 (sc), vehicle: saline) was 109 % of control.

With `C#C[C@]1(O)CC[C@H]2[C@@H]3CCc4cc(O)ccc4[C@H]3CC[C@@]21C` the T/C [9] was 91 % of control, the T/C [10] was 83 % of control and the T/C (dose: 2400.0 mg/kg/injection, schedule: Q04DX004 (sc), vehicle: Klucel (hydroxypropylcellulose) (HPC)) was 80 % of control.

With `CC1=CC(=Nc2ccc(N(CCCl)CCCl)cc2)C=C(C)C1=O` the T/C [8] was 71 % of control, the T/C [11] was 76 % of control and the T/C [9] was 53 % of control.

In the case of `N#C[Se-].c1ccc([Te+](c2ccccc2)c2ccccc2)cc1`, the T/C (dose: 12.5 mg/kg/injection, schedule: Q04DX004 (sc), vehicle: Klucel (hydroxypropylcellulose) (HPC)) is reported as 64 % of control and the T/C (dose: 25.0 mg/kg/injection, schedule: Q04DX004 (sc), vehicle: Klucel (hydroxypropylcellulose) (HPC)) is reported as 44 % of control.

`O=C1NC(O)CCN1C1OC(CO)C(O)C1O` (stereo unspecified) was tested, and the T/C (dose: 200.0 mg/kg/injection, schedule: Q01DX010 (sc), vehicle: water) was 83 % of control, the T/C (dose: 400.0 mg/kg/injection, schedule: Q01DX010 (sc), vehicle: water) was 70 % of control and the T/C (dose: 800.0 mg/kg/injection, schedule: Q01DX010 (sc), vehicle: water) was 63 % of control. The T/C (dose: 1600.0 mg/kg/injection, schedule: Q01DX010 (sc), vehicle: water) was 67 % of control.

For `S=P(N1CC1)(N1CC1)N1CC1`, the T/C (dose: 1.0 mg/kg/injection, schedule: Q01DX010 (sc), vehicle: saline) was 34 % of control and the T/C (dose: 2.0 mg/kg/injection, schedule: Q01DX010 (sc), vehicle: saline) was 80 % of control.

With `Cc1nc(N)nc(N)c1-c1ccc(Cl)c(Cl)c1` the T/C (dose: 0.32 mg/kg/injection, schedule: Q01DX010 (sc), vehicle: saline) was 46 % of control, the T/C (dose: 0.63 mg/kg/injection, schedule: Q01DX010 (sc), vehicle: saline) was 75 % of control and the T/C (dose: 1.25 mg/kg/injection, schedule: Q01DX010 (sc), vehicle: saline) was 100 % of control. The T/C (dose: 2.5 mg/kg/injection, schedule: Q01DX010 (sc), vehicle: saline) was 68 % of control.

For `CNC(=O)n1c(N)nc(-c2ccccc2)c1-c1ccccc1`, the T/C (dose: 300.0 mg/kg/injection, schedule: Q04DX004 (sc), vehicle: saline with Tween-80) was 92 % of control and the T/C [2] was 38 % of control.

For `NC(CCl)=NCC12CC3CC(CC(C3)C1)C2`, the T/C (dose: 37.5 mg/kg/injection, schedule: Q04DX004 (sc), vehicle: Klucel (hydroxypropylcellulose) (HPC)) was 97 % of control and the T/C (dose: 75.0 mg/kg/injection, schedule: Q04DX004 (sc), vehicle: Klucel (hydroxypropylcellulose) (HPC)) was 114 % of control.

For `CC1C=NNC1=O` (stereo unspecified), the T/C [3] was 91 % of control, the T/C [4] was 64 % of control and the T/C [5] was 105 % of control.

`COc1cc(Cc2nccc3cc(OC)c(OC)cc23)c(C(C)=O)c(OC)c1` was tested, and the T/C (dose: 40.0 mg/kg/injection, schedule: Q01DX010 (sc), vehicle: saline) was 35 % of control, the T/C (dose: 80.0 mg/kg/injection, schedule: Q01DX010 (sc), vehicle: saline) was 50 % of control and the T/C (dose: 160.0 mg/kg/injection, schedule: Q01DX010 (sc), vehicle: saline) was 19 % of control.

In the case of `C[C@@]12C(=O)OC(=O)[C@]1(C)[C@H]1CC[C@@H]2O1`, the T/C (dose: 1.25 mg/kg/injection, schedule: Q04DX004 (sc), vehicle: Klucel (hydroxypropylcellulose) (HPC)) is reported as 87 % of control, the T/C (dose: 2.5 mg/kg/injection, schedule: Q04DX004 (sc), vehicle: Klucel (hydroxypropylcellulose) (HPC)) is reported as 75 % of control and the T/C (dose: 5.0 mg/kg/injection, schedule: Q04DX004 (sc), vehicle: Klucel (hydroxypropylcellulose) (HPC)) is reported as 89 % of control.

In the case of `COc1cc(C(=O)c2cc3c(cc2C)OCO3)cc(OC)c1OC`, the T/C [11] is reported as 83 % of control, the T/C [9] is reported as 64 % of control and the T/C [10] is reported as 82 % of control.

For `O=C(CCBr)N1CCN(C(=O)CCBr)CC1`, the T/C (dose: 12.5 mg/kg/injection, schedule: Q01DX010 (sc), vehicle: Klucel (hydroxypropylcellulose) (HPC)) was 71 % of control and the T/C (dose: 25.0 mg/kg/injection, schedule: Q01DX010 (sc), vehicle: Klucel (hydroxypropylcellulose) (HPC)) was 64 % of control.

For `CC(=O)OC1=NC(C)c2c1cc(OC(C)=O)[nH]c2=O` (stereo unspecified), the T/C (dose: 225.0 mg/kg/injection, schedule: Q04DX004 (sc), vehicle: Klucel (hydroxypropylcellulose) (HPC)) was 108 % of control and the T/C (dose: 900.0 mg/kg/injection, schedule: Q04DX004 (sc), vehicle: Klucel (hydroxypropylcellulose) (HPC)) was 58 % of control.

For `O.O.[NH-]C1CCCCC1[NH-].[Pt+2]` (stereo unspecified), the T/C (dose: 10.0 mg/kg/injection, schedule: Q01DX010 (sc), vehicle: saline) was 74 % of control and the T/C (dose: 20.0 mg/kg/injection, schedule: Q01DX010 (sc), vehicle: saline) was 54 % of control.
